Test results as given in patent publication US11919854B2, “P2RX7 modulators in therapy” (Centre national de la recherche scientifique, priority 2018, dated 2024).
Entries after “also recorded” stand apart in the source; their conditions may differ.

What was measured:
DSS-induced colitis = DSS-induced colitis mouse model; assay type: in vivo, C57BL/6J mice
Procedure: (A) Body weight loss and (B) clinical scores from C57BL/6J treated with 3% DSS during 5 days (J1 to J5), followed by 10 days of normal tap water. The treated group received HEI2328 (ip, 2.3 mg/kg in PBS, 10% DMSO). Data are representative of 2 independent experiments (n=20). Mean±SEM are shown. *, p<0.05; **, p<0.01 (Mann-Whitney test).
The inflammatory index was scored in a longitudinal (A) and a transversal section of the colon (B). Data are representative of 2 independent experiments (n=20). Mean±SEM are shown. *, p<0.05; **, p<0.01 (Mann-Whitney test).
(A-D) Phenotypic analysis of immune cells in spleen of 20 mice treated with HEI2328 or non treated. Data are representative of 2 independent experiments (n=20). Mean±SEM are shown. *, p<0.05; **, p<0.01 (Mann-Whitney test).
All mice received dextran sulfate sodium (3% DSS, TbS consultancy) ad libitum from day 1 to 5 and returned to normal tap water for the following 10 days. Control mice (n=20) were injected daily intraperitoneally with placebo (PBS/10% DMSO), whereas treated mice received 2.3 mg/kg HEI2328 in PBS/10% DMSO. The inventors used the following semi-quantitative clinical score:
Body weight loss was scored as follows: 0, no loss; 1, loss <5%; 2, loss <10%; 3, loss <20%; and 4, loss >20%.
The scores for stool consistency were measured as 0, normal; 1, loose stools; 2, watery diarrhea; or 3, severe watery diarrhea.
Rectal bleeding was scored as 0, no blood; 1, presence of petechia; 2, stools with a trace of blood; or 3, bleeding.
Inflammation score was performed by trained pathologists. Briefly, the severity of inflammation (none, mild, moderate, severe), extent of inflammation (none, mucosa, mucosa, and submucosa, transmural), crypt damage (none, basal to 1/3, basal to 2/3, crypt loss, crypts, and epithelium loss), and percentage of tissue affected by inflammation (0, 25, 50, 75, and 100%) were scored.

[1] = system: B16F10 or LLC (Lewis Lung Cancer) cells; experiment: Syngeneic tumor mice models, statements covering both B16F10 and LLC; assay type: in vivo, C57BL6 mice
Procedure: 5×10^5 LLC or 5×10^5 B16F10 cells were injected sub cutaneously in the right flank of C57BL6 mice. Mice received HEI3090 (ip, 2.5 mg/kg in 10% DMSO/PBS) daily or placebo (10% DMSO/PBS). A,C. incidence of tumor appearance B,D. Tumor size (mm2) and tumor weight at sacrifice day (J12). E. HEI-treated tumors are more immunogenic. Expression of CMH1 (H2K^b/D^b) and PD-L1 by LLC (black) and B16F10 (grey) tumors is shown in dot plots. Numbers highlighted the percentage of tumor cells positive for H2K^b/D^b and PD-L1. […] F. CD-45 positive infiltrates is increased in LLC and B16F10 tumors. *, p<0.05; **, p<0.01; ***, p<0.001 Mann-Whitney test.
5×10^5 LLC or 5×10^5 B16F10 cells were injected sub cutaneously in the right flank of C57BL6 mice. Mice received HEI3090 (ip, 2.5 mg/kg in 10% DMSO/PBS) daily or placebo (10% DMSO/PBS). A. The quantity of immunosuppressive cells is reduced. Dot plot of representative experiment. Numbers highlighted the percentage of M-MDSC and PMN-MDSC. […] B. The quantity of effector T cells ([…], NK, CD4+) is increased.
4.2. By killing tumoral cells, HEI3090 may represent a new anti-tumor treatment. To test this hypothesis, immunocompetent C57B16J mice were subcutaneously injected with 5×10^5 B16F10 or 5×10^5 LLC (Lewis Lung Cancer) cells and treated daily with HEI3090 (ip, 2.5 mg/kg in 10% DMSO/PBS) or placebo (10% DMSO/PBS). […] In both tumor mice models, tumors weight in the treated group was reduced by 10-fold in the B16F10 model (8 mg vs 81 mg) and by 4-folds in the LLC model (80 mg vs 295 mg). Of interest, tumors from the HEI3090 treated group are more immunogenic than tumors from the placebo group.

[2] = Plasmatic concentration after intraperitoneal administration (LC-MS/MS); assay type: in vivo, mice; settings: ip
Procedure: B. HEI 3090 is found within plasma until 18 h after intraperitoneal administration. Intraperitoneal administration of HEI-3090 (0.166 mg/mL in 10% DMSO) was performed and serum was taken at 0, 10, 20, 30, […], 120, 240, 360, 1080 and 1440 min. Plasmatic concentration was determined by LC-MS/MS and reached a maximum of 2.5 μM.
Stability was studied in the mouse liver microsome system—and human, not shown—(FIG. 13A) and directly in vivo, for HEI3090 molecule (FIG. 13B). These experiments highlighted that HEI3090 is found at a concentration of maximum 2.5 μM in the plasma of mice injected with HEI3090 (ip, 1.5 mg/kg in 10% DMSO).

P2RX7 = experiment: Large pore opening in splenocytes from control or p2rx7 KO mice; assay type: cell-based, mouse; settings: HEI3090 50 μM, BzATP 500 μM
Procedure: A. Splenocytes from control or p2rx7^exon2 KO mice were isolated and treated with HEI3090 (50 μM) in presence of absence of BzATP (500 μM). B. Large pore opening induced by increasing concentration of BzATP in presence or absence of HEI3090 in human P2RX7 expressing cells.
Indeed, with the same BzATP concentration, more cells are positive for Topro3 staining.

[3] = system: NCI panel of 60 tumor cell lines; experiment: Toxicity on NCI panel of 60 tumor cell lines; assay type: cell-based; settings: HEK cell lines stably transfected with hP2RX7 or mP2RX7 and NCI panel of 60 human tumor cell lines
Source text: Toxicity of HEI_2333 and HEI_2336 was already tested on the NCI panel of 60 tumor cell lines (NCI 60-cell panel).

Q: For `O=C(NCc1ccc(Cl)cc1Cl)[C@@H]1CCC(=O)N1C(=O)Nc1ccc(Cl)c(Cl)c1` [HEI2328, (S)—N^2-(2,4-Dichlorobenzyl)-N^1-(3,4-dichlorophenyl)-5-oxopyrrolidine-1,2-dicarboxamide], which clinical score (DSS-induced colitis; 2.3 mg/kg ip daily) is on record?
A: The clinical score was “more healthy and recovered quicker than control mice”.

Q: And the “recovery of original weight” value (DSS-induced colitis; 2.3 mg/kg ip daily)?
A: Its value is “recovered their original weight after 15 days”.

Q: What about the “proportion of inflammatory monocytes in spleen” value (DSS-induced colitis; CD11b+CD11c−Ly6c+Ly6g−CD3−NK1.1−B220−) of the same compound?
A: Its value is “statistically decreased”.

Q: What about the “reduction of clinical signs compared with classical P2RX7 antagonists (literature)” value (DSS-induced colitis; comparison with published antagonist data) of the same compound?
A: Its value is “more efficient than classical P2RX7 antagonists”.

Q: And the “inflammatory (histologic) index of colon” value (DSS-induced colitis; day 15, colon sections)?
A: The value was “very low inflammatory index”.

Q: And the body weight loss (DSS-induced colitis; days 6 to 9, 2.3 mg/kg ip daily, 3% DSS days 1-5)?
A: The body weight loss was “lost statistically less weight than the control group”.

Q: And the “myeloid infiltrate in spleen” value (DSS-induced colitis; treated mice (28 in non treated))?
A: The value was 17%.

Q: What about the “lymphoid population in spleen” value (DSS-induced colitis; treated mice (67 in non treated)) of the same compound?
A: Its value is 76%.

Q: What about the “Treg and Tγδ lymphocytes within lymphoid populations of spleen” value (DSS-induced colitis; treated vs non treated) of the same compound?
A: Its value is “increased”.

Q: And the “proportion of conventional DC (cDC) and plasmacytoid DC (pDC) in spleen” value (DSS-induced colitis; treated vs non treated)?
A: The value was “did not modify”.

Q: Which “CD45 positive cells in tumors” value ([1]; HEI3090 ip 2.5 mg/kg daily) does the source give for `O=C(NCc1ccc(Cl)cc1Cl)[C@@H]1CCC(=O)N1C(=O)Nc1ccc(Cl)nc1` [HEI3090, (S)—N^1-(6-Chloropyridin-3-yl)-N^2-(2,4-dichlorobenzyl)-5-oxopyrrolidine-1,2-dicarboxamide] here?
A: The value was “enriched with CD45 positive cells”.

Q: And the “delay of tumor appearance” value ([1]; HEI3090 ip 2.5 mg/kg daily)?
A: The value was 1 to 4 days.

Q: And the “ratio between effector cells (Tγδ, NK, CD4+) and total MDSC” value ([1]; HEI3090 ip 2.5 mg/kg daily)?
A: Its value is “in favor to effector cells”.

Q: And the “tumor expression of PD-L1 vs placebo” value ([1]; HEI3090 ip 2.5 mg/kg daily)?
A: Its value is 2 fold.

Q: What about the “tumor expression of major complex histocompatibility 1 (MCH1) vs placebo” value ([1]; HEI3090 ip 2.5 mg/kg daily) of the same compound?
A: The value was 2 fold.

Q: What about the tumor growth ([1]; HEI3090 ip 2.5 mg/kg daily) of the same compound?
A: The tumor growth was “potently inhibits tumor growth”.

Q: What about the “tumor volume and tumor weight” value ([1]; HEI3090 ip 2.5 mg/kg daily, sacrifice day J12) of the same compound?
A: Its value is “drastically reduced”.

Q: And the overall mice survival ([1]; therapeutically treated mice (increase from 22))?
A: The overall mice survival was 50 days.

Q: What about the “immune cells within the spleen of treated mice” value ([1]; tumor bearing mice treated with HEI3090) of the same compound?
A: Its value is “unable to detect any modification of immune cells within the spleen”.

Q: What about the “time found within plasma after intraperitoneal administration” value ([2]; 0.166 mg/mL in 10% DMSO) of the same compound?
A: The value was no more than 18 h.

Q: And the maximum plasmatic concentration ([2]; mice, 1.5 mg/kg in 10% DMSO (0.166 mg/mL in 10% DMSO))?
A: Its maximum plasmatic concentration is 2.5 µM.

Q: What about the “Topro3 incorporation / effect in splenocytes from P2rx7 KO mice” value (P2RX7) of the same compound?
A: The value was “Topro3 incorporation is lost; also recorded: absence of effect”.

Q: And the “large pore opening in presence of BzATP” value (P2RX7; splenocytes from control mice)?
A: Its value is “potentializes large pore opening in presence of BzATP”.

Q: And the “toxicity in absence of the endogenous P2RX7 ligand (ATP)” value [3]?
A: The value was “non-toxic”.
